Results: article PMC6539525, “Design, Synthesis, and Mechanism of Dihydroartemisinin–Coumarin Hybrids as Potential Anti-Neuroinflammatory Agents” (Molecules, 2019)
Where two headings read alike, the source gives them in different places.

Experiments:
HT-29 cells = test: MTT cytotoxicity in HT-29 cells; assay type: cell-based, Human; conditions: Homo sapiens, MTT
Protocol: (§1) As the anti-neuroinflammatory agents for cancer patients, all newly synthesized compounds were evaluated in vitro for antitumor activity against human breast cancer cell line MDA-MB-231, colorectal cancer cells HT-29 and HCT-116, and lung cancer cell line A549 by using the standard MTT method, respectively. Doxorubicin (DOX) and DHA were used as the reference standard. Additionally, owing to the rapid proliferation, the tumor cells actually was always in hypoxia condition. Therefore, the in vitro cytotoxicity was evaluated in two different conditions (hypoxia and normoxia).
After recovery, the cells were cultured in 96-well plates for 24 h at 37 °C in a humidified atmosphere with 95% air and 5% CO2. After treated with different tested compounds, the hypoxia groups were placed in a sealed hypoxia incubator chamber (Stemcell Technologies, Inc., Vancouver, BC, Canada) filled with 5% CO2 and 95% N2 for 24 h, and then transferred to the incubator chamber filled with air for 72 h. […]
(§2) Cancer cells HT-29 (Human Colorectal Adenocarcinoma cell line), MDA-MB-231 (Human Breast Cancer cell line), HCT-116 (Human Colorectal Carcinoma cell line), and A549 (Human Lung Adenocarcinomic cell line) were from ATCC.
When the adherent cells reached 80% confluence, the culture medium was discarded. The cells were digested by trypsin and collected after centrifugation. The fresh culture medium was gently blown into it to form single-cell suspension. Cell suspension will be diluted to 1.5–3 × 10^4 cells/mL. Each hole of 96-well plates was added 100 μL cell suspension and incubated for 24 h (5% CO2; 37 °C). Then the holes were added different concentrations of tested compounds. The early screening concentration is set to 100 μM, 50 μM, 25 μM, 12.5 μM, and 6.25 μM. Three replicates were made for each concentration of the tested compounds. […] The medium was discarded and each well was added 100 μL DMSO to dissolve the formazan blue. Absorbance was measured at 570 nm with a microplate reader (Synergy-HT, BioTek Instruments, Winooski, VT, USA). […]

MDA-MB-231 cells = test: MTT cytotoxicity in MDA-MB-231 cells; assay type: cell-based; conditions: Homo sapiens
Protocol: as §1
(§3) After recovery, the cells were cultured in 96-well plates for 24 h at 37 °C in a humidified atmosphere with 95% air and 5% CO2. After treated with different tested compounds, the hypoxia groups were placed in a sealed hypoxia incubator chamber (Stemcell Technologies, Inc., Vancouver, BC, Canada) filled with 5% CO2 and 95% N2 for 24 h, and then transferred to the incubator chamber filled with air for 72 h. On the contrary, the normoxia groups were cultured under air condition for 96h.
as §2
(§4) When the adherent cells reached 80% confluence, the culture medium was discarded. The cells were digested by trypsin and collected after centrifugation. The fresh culture medium was gently blown into it to form single-cell suspension. Cell suspension will be diluted to 1.5–3 × 10^4 cells/mL. Each hole of 96-well plates was added 100 μL cell suspension and incubated for 24 h (5% CO2; 37 °C). Then the holes were added different concentrations of tested compounds. The early screening concentration is set to 100 μM, 50 μM, 25 μM, 12.5 μM, and 6.25 μM. Three replicates were made for each concentration of the tested compounds. After the cells were grown for 96h, 20 μL MTT (5 mg/mL) was added to each well and incubated for 4 h. The medium was discarded and each well was added 100 μL DMSO to dissolve the formazan blue. Absorbance was measured at 570 nm with a microplate reader (Synergy-HT, BioTek Instruments, Winooski, VT, USA).
(§5) Hypoxia condition: The cells were treated with different concentration of tested compounds, placed in hypoxia chamber (Catalog Number 27310, Stemcell Technologies, Inc., Vancouver, BC, Canada), and incubated for 24 h ([…]; 37 °C). Then the cells were placed in normoxia condition (5% CO2; 37 °C) and incubated for 72 h.

HCT-116 cells = test: MTT cytotoxicity in HCT-116 cells; assay type: cell-based; conditions: Homo sapiens
Protocol: as §1, §3, §2, §4, §5

A549 cells = test: MTT cytotoxicity in A549 cells; assay type: cell-based; conditions: Homo sapiens
Protocol: as §1, §3, §2, §4, §5

[1] = tested on: NO release of LPS-induced microglial N9 cells; test: Inhibition of NO release in LPS-induced N9 cells (Griess); assay type: cell-based, murine; conditions: Mus musculus, 1 μg/mL LPS for 48 h, NO level in medium
Protocol: (§6) The anti-neuroinflammatory activity of DCH was evaluated and then the representative compounds were selected for the further study. […] In addition, in order to exclude the death influence, MTT-IC20 of all the compounds were measured. […] The exact reason was still unclear, but we supposed that it might be related to the homeostasis of cells. The tumor cells actually were always in hypoxia condition, in which DCH could promote the cytotoxic activity against tumor cells. In brief, DCH could reduce the release of NO caused by LPS-induced microglial cells.
(§7) N9 cells, which were in the logarithmic phase, were incubated for 24 h by adherent culture. Subsequently, the medium was changed to new one without serum. The cells were treated with different concentration of tested compounds. After specific time in the LPS condition, the supernatants were collected and analyzed.
The nitrite levels in medium were determined by Griess reaction. The absorbance was measured at 540 nm using a microplate reader.

[2] = MTT cytotoxicity in N9 cells; assay type: cell-based, murine; conditions: mouse, N9 microglial cells, cytotoxic activity
Protocol: as §6, §4, §7

[3] = HT-29, hypoxia 24 h then normoxia 72 h, read-out: IC50 HT-29 Hypoxia
[4] = HT-29, normoxia 96 h, read-out: IC50 HT-29 Normoxia
[5] = MDA-MB-231, hypoxia 24 h then normoxia 72 h, read-out: IC50 MDA-MB-231 Hypoxia
[6] = MDA-MB-231, normoxia 96 h, read-out: IC50 MDA-MB-231 Normoxia
[7] = HCT-116, hypoxia 24 h then normoxia 72 h, read-out: IC50 HCT-116 Hypoxia
[8] = HCT-116, normoxia 96 h, read-out: IC50 HCT-116 Normoxia
[9] = A549, hypoxia 24 h then normoxia 72 h, read-out: IC50 A549 Hypoxia
[10] = A549, normoxia 96 h, read-out: IC50 A549 Normoxia

Row | Compound | IC50 (HT-29 cells; [3]) | IC50 (HT-29 cells; [4]) | IC50 (MDA-MB-231 cells; [5]) | IC50 (MDA-MB-231 cells; [6]) | IC50 (HCT-116 cells; [7]) | IC50 (HCT-116 cells; [8]) | IC50 (A549 cells; [9]) | IC50 (A549 cells; [10]) | IC50 [1] | IC20 [2] | melting point
1 | C[C@H]1[C@@H](OCCc2cn(Cc3cc4cc(Cl)cc(Cl)c4oc3=O)nn2)O[C@@H]2O[C@@]3(C)CC[C@H]4[C@H](C)CC[C@@H]1[C@@]24OO3 [2d, 6,8-dichloro-3-((4-(2-((10S)-dihydroartemisininoxy)ethyl)-1H-1,2,3-triazol-1-yl)-methyl)-2H-1-chromen-2-one] | 30.8 µM | 19.5 µM | 47.9 µM | 88.5 µM | 46.5 µM | 53.2 µM | 69.7 µM | 96.5 µM | 1350 nM | > 10 µM | 101 to 103 °C
2 | C[C@H]1[C@@H](OCCc2cn(Cc3cc4cc(Br)cc(Br)c4oc3=O)nn2)O[C@@H]2O[C@@]3(C)CC[C@H]4[C@H](C)CC[C@@H]1[C@@]24OO3 [2e, 6,8-dibromo-3-((4-(2-((10S)-dihydroartemisininoxy)ethyl)-1H-1,2,3-triazol-1-yl)-methyl)-2H-1-chromen-2-one] | 13.9 µM | 38.5 µM | 44.1 µM | > 100 µM | 86.5 µM | 94.2 µM | 79.4 µM | > 100 µM | 940 nM | > 10 µM | 93 to 95 °C
3 | Cc1cc(C)c2c(OCc3cn(CCO[C@H]4O[C@@H]5O[C@@]6(C)CC[C@H]7[C@H](C)CC[C@@H]([C@H]4C)[C@@]57OO6)nn3)cc(=O)oc2c1 [5l] | 3.76 µM | 2.78 µM | > 100 µM | > 100 µM | > 100 µM | > 100 µM | > 100 µM | > 100 µM | 3360 nM | 7.13 µM | 111 to 113 °C
4 | Cc1cc(C)c2oc(=O)cc(OCc3cn(CCO[C@H]4O[C@@H]5O[C@@]6(C)CC[C@H]7[C@H](C)CC[C@@H]([C@H]4C)[C@@]57OO6)nn3)c2c1 [5m] | 5.89 µM | 12.9 µM | 13 µM | 14.2 µM | 44.8 µM | 62.8 µM | 1.28 µM | 2.67 µM | 1080 nM | 1.04 µM | 111 to 113 °C
5 | Cc1cccc2c(OCc3cn(CCO[C@H]4O[C@@H]5O[C@@]6(C)CC[C@H]7[C@H](C)CC[C@@H]([C@H]4C)[C@@]57OO6)nn3)cc(=O)oc12 [5o] | 21.2 µM | 16.1 µM | 16.5 µM | 37.4 µM | 38.5 µM | 29.7 µM | 45.1 µM | 50.4 µM | 570 nM | > 10 µM | 84 to 86 °C
6 | C[C@H]1[C@@H](OCCCn2cc(COc3cc(=O)oc4ccccc34)nn2)O[C@@H]2O[C@@]3(C)CC[C@H]4[C@H](C)CC[C@@H]1[C@@]24OO3 [6j] | 7.42 µM | 10.5 µM | 33.4 µM | 67.4 µM | 32.8 µM | 25.9 µM | 49 µM | 53.4 µM | 290 nM | > 10 µM | 74 to 76 °C
7 | Cc1ccc2c(OCc3cn(CCCO[C@H]4O[C@@H]5O[C@@]6(C)CC[C@H]7[C@H](C)CC[C@@H]([C@H]4C)[C@@]57OO6)nn3)cc(=O)oc2c1 [6k] | 5.32 µM | 6.85 µM | 14.5 µM | 38.6 µM | 33.7 µM | 28.1 µM | 9.49 µM | 14.9 µM | 1910 nM | > 10 µM | 80 to 82 °C
8 | Cc1cc(C)c2oc(=O)cc(OCc3cn(CCCO[C@H]4O[C@@H]5O[C@@]6(C)CC[C@H]7[C@H](C)CC[C@@H]([C@H]4C)[C@@]57OO6)nn3)c2c1 [6m] | 5.9 µM | 22.4 µM | 18.7 µM | 24.6 µM | 93.5 µM | 42.1 µM | 20.1 µM | 27.9 µM | 5800 nM | > 10 µM | 90 to 92 °C
9 | Cc1ccc2c(OCc3cn(CCCO[C@H]4O[C@@H]5O[C@@]6(C)CC[C@H]7[C@H](C)CC[C@@H]([C@H]4C)[C@@]57OO6)nn3)cc(=O)oc2c1C [6n] | 4.19 µM | 9.16 µM | 10.8 µM | 13.3 µM | 33.7 µM | 22.5 µM | 0.039 µM | 30.4 µM | 1130 nM | 6.53 µM | 115 to 117 °C
10 | Cc1cccc2c(OCc3cn(CCCO[C@H]4O[C@@H]5O[C@@]6(C)CC[C@H]7[C@H](C)CC[C@@H]([C@H]4C)[C@@]57OO6)nn3)cc(=O)oc12 [6o] | 29 µM | 81.6 µM | 18.6 µM | 47.6 µM | 42.4 µM | 12.1 µM | 39.9 µM | 78.1 µM | 1430 nM | > 10 µM | 143 to 145 °C
